# Reference: PubChem BioAssay (NCI)
#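 Cultured in 96-well plates, cells were exposed to test compound for 48 hours across five concentrations. At the GI50, growth is halved. TGI: concentration producing complete growth inhibition.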
# How the values were obtained:
# Experiment in all cases: NCI tumour cell line growth inhibition, 48 h
# [1] = test system: NCI-H226 lung
# [2] = test system: NCI-H23 lung
# [3] = test system: NCI-H460 lung
# [4] = test system: NCI-H522 lung
# [5] = test system: NCI/ADR-RES ovarian
# [6] = test system: OVCAR-3 ovarian
# [7] = test system: OVCAR-4 ovarian
# [8] = test system: OVCAR-5 ovarian
# [9] = test system: OVCAR-8 ovarian
# [10] = test system: PC-3 prostate
# [11] = test system: RPMI-8226 leukemia
# [12] = test system: RXF 393 renal
# [13] = test system: SF-268 CNS
# [14] = test system: SF-295 CNS
# [15] = test system: SF-539 CNS
# [16] = test system: SK-MEL-2 melanoma
# [17] = test system: SK-MEL-28 melanoma
# [18] = test system: SK-MEL-5 melanoma
# [19] = test system: SK-OV-3 ovarian
# [20] = test system: SN12C renal
# [21] = test system: SNB-19 CNS
# [22] = test system: SNB-75 CNS
# [23] = test system: SR leukemia
# [24] = test system: SW-620 colon
# [25] = test system: T-47D breast
# [26] = test system: TK-10 renal
# [27] = test system: U251 CNS
# [28] = test system: UACC-257 melanoma
# [29] = test system: UACC-62 melanoma
# [30] = test system: UO-31 renal
smiles,measurement,setting,value
C/C(=C\CC/C=C(\C)CC/C=C(\C)CC[C@@H](O)C(C)(C)O)CC/C=C(\C)CC[C@@H](O)C(C)(C)O,TGI,[1],27.3 µM
same,GI50,[2],10.9 µM
same,TGI,[2],23.2 µM
same,GI50,[3],11.3 µM
same,TGI,[3],24.5 µM
same,GI50,[4],11 µM
same,TGI,[4],25.9 µM
same,GI50,[5],11.1 µM
same,TGI,[5],23.6 µM
same,GI50,[6],13.7 µM
same,TGI,[6],26.7 µM
same,GI50,[7],11 µM
same,TGI,[7],23.4 µM
same,GI50,[8],14.5 µM
same,TGI,[8],27.8 µM
same,GI50,[9],15 µM
same,TGI,[9],34.8 µM
same,GI50,[10],5.16 µM
same,TGI,[10],20.1 µM
same,GI50,[11],3.74 µM
same,TGI,[11],18.9 µM
same,GI50,[12],5.93 µM
same,TGI,[12],20.1 µM
same,GI50,[13],13.6 µM
same,TGI,[13],28.3 µM
same,GI50,[14],7.84 µM
same,TGI,[14],20.9 µM
same,GI50,[15],13.1 µM
same,TGI,[15],26.1 µM
same,GI50,[16],14.4 µM
same,TGI,[16],30 µM
same,GI50,[17],12.6 µM
same,TGI,[17],25.4 µM
same,GI50,[18],5.06 µM
same,TGI,[18],17.4 µM
same,GI50,[19],15.8 µM
same,TGI,[19],31 µM
same,GI50,[20],12.6 µM
same,TGI,[20],25.3 µM
same,GI50,[21],15 µM
same,TGI,[21],28.5 µM
same,GI50,[22],12.5 µM
same,TGI,[22],25 µM
same,GI50,[23],18.5 µM
same,TGI,[23],67.8 µM
same,GI50,[24],14.9 µM
same,TGI,[24],29.4 µM
same,GI50,[25],7.75 µM
same,TGI,[25],25 µM
same,GI50,[26],17.6 µM
same,TGI,[26],32.5 µM
same,GI50,[27],13.4 µM
same,TGI,[27],38.1 µM
same,GI50,[28],10.7 µM
same,TGI,[28],23.7 µM
same,GI50,[29],9.71 µM
same,TGI,[29],21.6 µM
same,GI50,[30],7.71 µM
same,TGI,[30],20.7 µM
